Like-named read-outs stand apart in the source and are kept apart here.
Assays:
[1] = target: SIRT-5 (Homo sapiens, UniProt Q9NXA8); experiment: inhibition of sirtuins; assay type: biochemical
Source text: Inhibition of Sirtuins, matrix metalloproteinase, bromodomains was also confirmed using standard protocols and the results are present in Table 2.

[2] = system: human pancreatic cancer xenograft CFPAC-1 cells; experiment: human pancreatic cancer xenograft CFPAC-1 in scid mice; assay type: in vivo; details: CFPAC-1 xenograft
Source text: The results of the anticancer activity are presented in Tables 3 and 4 (above) and in FIG. 6, Hela cells shown at (A) and CMK cells at (B) and MV4-11 and MOLT-14 acute myeloid leukemia cells.

[3] = system: MV4-11 (Leukemia); experiment: anticancer cell proliferation assay (WST-1); assay type: cell-based
Protocol: (§1) Anticancer activity was tested against several standard cancer cell lines including brain, breast, Kaposi sarcoma, leukemia, lung, melanoma, tenosynovial giant cell tumor, ovarian, pancreatic, colon and prostate cancer. Cells were trypsinized and plated into 96 well plates in 50 μl of media and incubated overnight. The next day approximately 18 hours after plating, 50 μl of media containing the required flavonoid-based pharmaceutical composition was added per well. Cells were plated at a density so that 72 hours post drug addition, the cells will be in log phase (500-2000 cells/well). The compounds and extracts were solubilized in Dimethyl sulfoxide (DMSO). The cells are allowed to proliferate for 72 hours 37° C. in humidified atmosphere of 5% CO2. The experiment is terminated using WST-1 (Roche®) 10 μl per well and absorbance is read at 450 nm/690 nm. The effect of drugs on growth is assessed as percent of cell viability. The IC50 values were determined from the extract dose versus control growth curves using Graphpad Prism® software. All experiments were carried out in duplicate and the mean results determined.

[4] = system: MM.1S (Multiple Myeloma); experiment: anticancer cell proliferation assay (WST-1); assay type: cell-based; details: 72 hours
Protocol: as §1, with “Bioactivity of the above-described compounds has been verified by an anticancer cell proliferation assay using the WST-1 (4-[3-(4-iodophenyl)-2-(4-nitrophenyl)-2H-5-tetrazoliol-1, 3-benzene disulfonate) colorimetric assay by Roche Life Sciences®. Anticancer” for “Anticancer”

[5] = system: KMS-11 (Multiple myeloma); experiment: anticancer cell proliferation assay (WST-1); assay type: cell-based; details: 72 hours
Protocol: as §1, with “Bioactivity of the above-described compounds has been verified by an anticancer cell proliferation assay using the WST-1 (4-[3-(4-iodophenyl)-2-(4-nitrophenyl)-2H-5-tetrazoliol-1, 3-benzene disulfonate) colorimetric assay by Roche Life Sciences®. Anticancer” for “Anticancer”

[6] = target: T1, FLT3(ITD) (Homo sapiens, UniProt P36888); assay type: binding; details: Table 1
T1 construct: In general, full-length constructs were used for small, single domain kinases, and catalytic domain constructs for large multi-domain kinases; fused on or other part: T7 phage fusion or DNA tag for qPCR detection
Protocol: (§2) Cannabis flavonoids and their analogs were subjected to kinase inhibition assay. The compounds were first screened at a single concentration of 10 μM in the primary assay. […] To determine the kd or IC50 values, competition binding assays were established, authenticated and executed as described previously. […] See also, Karaman et al., “A Quantitative Analysis Of Kinase Inhibitor Selectivity”, Nat. Biotechnol. […] For most assays, kinases were fused to T7 phage strains (Fabian, supra) and for the other assays, kinases were produced in HEK-293 cells after which they were tagged with DNA for quantitative PCR detection. In general, full-length constructs were used for small, single domain kinases, and catalytic domain constructs for large multi-domain kinases. […] The liganded beads were blocked with excess biotin and washed with blocking buffer (SeaBlock (Pierce), 1% BSA, 0.05% Tween 20, 1 mM DTT) to remove unbound ligand and to reduce non-specific phage binding. […] All reactions were performed in polypropylene 384-well plates in a final volume of 0.04 ml. […] The kinase concentration in the eluates was measured by quantitative PCR. An illustration of the kinase interaction process is presented below. Kd/IC50 values were determined using a standard dose response curve using the hill equation. Curves were fitted using a non-linear least square fit with the Levenberg-Marquardt algorithm.

[7] = target: T2, MEK5 (Homo sapiens, UniProt Q13163); experiment: kinase competition binding assay; details: Table 1
T2 construct: T7 phage fusion (most assays) or DNA tag for qPCR (HEK-293-made kinases); made in house
Protocol: (§3) Cannabis flavonoids and their analogs were subjected to kinase inhibition assay. The compounds were first screened at a single concentration of 10 μM in the primary assay. […]. To determine the kd or IC50 values, competition binding assays were established, authenticated and executed as described previously. Fabian et al., “A Small Molecule-Kinase Interaction Map For Clinical Kinase Inhibitors.”, Nat Biotechnol, 23(3):329-36, Epub (2005). See also, Karaman et al., “A Quantitative Analysis Of Kinase Inhibitor Selectivity”, Nat. Biotechnol. […] For most assays, kinases were fused to T7 phage strains (Fabian, supra) and for the other assays, kinases were produced in HEK-293 cells after which they were tagged with DNA for quantitative PCR detection. In general, full-length constructs were used for small, single domain kinases, and catalytic domain constructs for large multi-domain kinases. The binding assays utilized streptavidin-coated magnetic beads treated with biotinylated small molecule ligands for 30 minutes at room temperature which generated affinity resins for the kinase assays. The liganded beads were blocked with excess biotin and washed with blocking buffer (SeaBlock (Pierce), 1% BSA, 0.05% Tween 20, 1 mM DTT) to remove unbound ligand and to reduce non-specific phage binding. […] Test compounds were prepared as 40× stocks in 100% DMSO and diluted directly into the assay (Final DMSO concentration=2.5%). All reactions were performed in polypropylene 384-well plates in a final volume of 0.04 ml. […] The beads were then re-suspended in elution buffer (1×PBS, 0.05% Tween 20, 0.5 μM non-biotinylated affinity ligand) and incubated at room temperature with shaking for 30 minutes. The kinase concentration in the eluates was measured by quantitative PCR. An illustration of the kinase interaction process is presented below. Kd/IC50 values were determined using a standard dose response curve using the hill equation. Curves were fitted using a non-linear least square fit with the Levenberg-Marquardt algorithm.

[8] = target: T3, PIK4CB (Homo sapiens, UniProt Q9UBF8); experiment: kinase competition binding assay; details: Table 1
T3 construct: T7 phage fusion (most assays) or DNA tag for qPCR (HEK-293-made kinases); made in house
Protocol: as §3

[9] = target: T4, Yes/yes1 (Homo sapiens, UniProt P07947); experiment: kinase competition binding assay; details: Table 1
T4 construct: T7 phage fusion (most assays) or DNA tag for qPCR (HEK-293-made kinases); made in house
Protocol: as §3

[10] = target: T5, TXK (Homo sapiens, UniProt P42681); experiment: kinase competition binding assay; details: Table 1
T5 construct: T7 phage fusion (most assays) or DNA tag for qPCR (HEK-293-made kinases); made in house
T5 sequence (P42681 whole entry, the tested form may be a part): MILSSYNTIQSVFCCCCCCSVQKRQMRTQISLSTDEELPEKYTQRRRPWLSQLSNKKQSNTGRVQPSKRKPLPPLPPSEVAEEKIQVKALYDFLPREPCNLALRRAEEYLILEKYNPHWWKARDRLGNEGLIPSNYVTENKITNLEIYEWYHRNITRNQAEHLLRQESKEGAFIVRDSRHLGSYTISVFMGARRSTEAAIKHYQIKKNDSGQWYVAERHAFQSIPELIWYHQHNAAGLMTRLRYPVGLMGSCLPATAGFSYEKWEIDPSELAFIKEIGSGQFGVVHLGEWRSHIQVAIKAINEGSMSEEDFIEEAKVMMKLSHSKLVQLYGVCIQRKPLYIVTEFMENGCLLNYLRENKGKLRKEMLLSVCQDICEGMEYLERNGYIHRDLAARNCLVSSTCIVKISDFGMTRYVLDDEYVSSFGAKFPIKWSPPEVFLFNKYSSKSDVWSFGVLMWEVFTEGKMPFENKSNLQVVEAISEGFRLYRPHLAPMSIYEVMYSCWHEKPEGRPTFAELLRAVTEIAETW
Protocol: as §3

[11] = target: T6, SRC (Homo sapiens, UniProt P12931); experiment: kinase competition binding assay; details: Table 1
T6 construct: T7 phage fusion (most assays) or DNA tag for qPCR (HEK-293-made kinases); made in house
Protocol: as §3

[12] = target: T7, MNK2 (Homo sapiens, UniProt Q9HBH9); experiment: kinase competition binding assay; details: Table 1
T7 construct: T7 phage fusion (most assays) or DNA tag for qPCR (HEK-293-made kinases); made in house
T7 sequence (Q9HBH9 whole entry, the tested form may be a part): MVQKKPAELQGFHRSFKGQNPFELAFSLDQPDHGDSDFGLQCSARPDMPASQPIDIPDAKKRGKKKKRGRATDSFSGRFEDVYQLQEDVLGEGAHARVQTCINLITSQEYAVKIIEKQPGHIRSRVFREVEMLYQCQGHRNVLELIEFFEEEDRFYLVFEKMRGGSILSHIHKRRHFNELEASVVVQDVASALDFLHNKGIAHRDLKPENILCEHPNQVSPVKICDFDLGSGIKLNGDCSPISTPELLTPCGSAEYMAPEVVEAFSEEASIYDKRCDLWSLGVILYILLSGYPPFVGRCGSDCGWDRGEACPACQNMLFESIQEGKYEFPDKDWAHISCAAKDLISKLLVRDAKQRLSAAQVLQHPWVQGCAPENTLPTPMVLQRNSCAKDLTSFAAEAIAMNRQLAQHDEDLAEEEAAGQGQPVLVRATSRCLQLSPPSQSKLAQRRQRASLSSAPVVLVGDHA
Protocol: as §3

[13] = target: T8, JAK2 (Homo sapiens, UniProt O60674); experiment: kinase competition binding assay; details: Table 1
T8 construct: full-length constructs were used for small, single domain kinases, and catalytic domain constructs for large multi-domain kinases; T7 phage fusion (most assays) or DNA tag for qPCR (HEK-293-made kinases); made in house
T8 sequence (O60674 whole entry, the tested form may be a part): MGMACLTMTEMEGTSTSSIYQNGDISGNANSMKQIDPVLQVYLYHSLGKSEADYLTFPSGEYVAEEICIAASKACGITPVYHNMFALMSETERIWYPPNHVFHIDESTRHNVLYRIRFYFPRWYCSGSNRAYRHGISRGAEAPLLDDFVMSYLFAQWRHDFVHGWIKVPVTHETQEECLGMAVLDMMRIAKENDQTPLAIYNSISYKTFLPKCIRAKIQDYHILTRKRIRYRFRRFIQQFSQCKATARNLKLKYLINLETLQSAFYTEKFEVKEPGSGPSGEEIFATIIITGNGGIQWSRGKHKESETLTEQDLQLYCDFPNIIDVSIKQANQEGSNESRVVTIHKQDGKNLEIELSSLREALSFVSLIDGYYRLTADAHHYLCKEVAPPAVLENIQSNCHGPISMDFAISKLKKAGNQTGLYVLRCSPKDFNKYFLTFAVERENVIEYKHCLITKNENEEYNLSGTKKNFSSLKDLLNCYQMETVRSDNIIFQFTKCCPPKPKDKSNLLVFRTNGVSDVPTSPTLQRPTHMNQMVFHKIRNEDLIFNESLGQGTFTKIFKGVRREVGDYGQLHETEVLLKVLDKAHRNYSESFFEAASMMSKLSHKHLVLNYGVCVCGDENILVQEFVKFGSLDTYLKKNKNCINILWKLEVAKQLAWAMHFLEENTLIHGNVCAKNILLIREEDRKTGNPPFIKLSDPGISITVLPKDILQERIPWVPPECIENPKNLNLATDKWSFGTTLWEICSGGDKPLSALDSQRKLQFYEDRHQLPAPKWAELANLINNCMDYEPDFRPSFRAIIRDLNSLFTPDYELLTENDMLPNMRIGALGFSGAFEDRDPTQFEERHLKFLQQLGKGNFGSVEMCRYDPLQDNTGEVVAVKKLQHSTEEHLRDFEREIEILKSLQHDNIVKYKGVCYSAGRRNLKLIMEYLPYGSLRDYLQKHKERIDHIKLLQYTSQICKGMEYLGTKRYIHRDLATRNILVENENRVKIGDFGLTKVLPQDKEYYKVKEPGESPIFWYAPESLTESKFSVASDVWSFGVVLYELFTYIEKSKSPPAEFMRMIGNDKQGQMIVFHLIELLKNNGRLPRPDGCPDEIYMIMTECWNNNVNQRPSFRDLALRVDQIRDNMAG
Protocol: as §3

[14] = target: T9, c-SRC (Homo sapiens, UniProt P12931); experiment: kinase competition binding assay; details: Table 1
T9 construct: T7 phage fusion (most assays) or DNA tag for qPCR (HEK-293-made kinases); made in house
Protocol: as §3

[15] = target: T10, JAK1 (Homo sapiens, UniProt P23458); experiment: kinase competition binding assay; details: Table 1
T10 construct: full-length constructs were used for small, single domain kinases, and catalytic domain constructs for large multi-domain kinases; T7 phage fusion (most assays) or DNA tag for qPCR (HEK-293-made kinases); made in house
T10 sequence (P23458 whole entry, the tested form may be a part): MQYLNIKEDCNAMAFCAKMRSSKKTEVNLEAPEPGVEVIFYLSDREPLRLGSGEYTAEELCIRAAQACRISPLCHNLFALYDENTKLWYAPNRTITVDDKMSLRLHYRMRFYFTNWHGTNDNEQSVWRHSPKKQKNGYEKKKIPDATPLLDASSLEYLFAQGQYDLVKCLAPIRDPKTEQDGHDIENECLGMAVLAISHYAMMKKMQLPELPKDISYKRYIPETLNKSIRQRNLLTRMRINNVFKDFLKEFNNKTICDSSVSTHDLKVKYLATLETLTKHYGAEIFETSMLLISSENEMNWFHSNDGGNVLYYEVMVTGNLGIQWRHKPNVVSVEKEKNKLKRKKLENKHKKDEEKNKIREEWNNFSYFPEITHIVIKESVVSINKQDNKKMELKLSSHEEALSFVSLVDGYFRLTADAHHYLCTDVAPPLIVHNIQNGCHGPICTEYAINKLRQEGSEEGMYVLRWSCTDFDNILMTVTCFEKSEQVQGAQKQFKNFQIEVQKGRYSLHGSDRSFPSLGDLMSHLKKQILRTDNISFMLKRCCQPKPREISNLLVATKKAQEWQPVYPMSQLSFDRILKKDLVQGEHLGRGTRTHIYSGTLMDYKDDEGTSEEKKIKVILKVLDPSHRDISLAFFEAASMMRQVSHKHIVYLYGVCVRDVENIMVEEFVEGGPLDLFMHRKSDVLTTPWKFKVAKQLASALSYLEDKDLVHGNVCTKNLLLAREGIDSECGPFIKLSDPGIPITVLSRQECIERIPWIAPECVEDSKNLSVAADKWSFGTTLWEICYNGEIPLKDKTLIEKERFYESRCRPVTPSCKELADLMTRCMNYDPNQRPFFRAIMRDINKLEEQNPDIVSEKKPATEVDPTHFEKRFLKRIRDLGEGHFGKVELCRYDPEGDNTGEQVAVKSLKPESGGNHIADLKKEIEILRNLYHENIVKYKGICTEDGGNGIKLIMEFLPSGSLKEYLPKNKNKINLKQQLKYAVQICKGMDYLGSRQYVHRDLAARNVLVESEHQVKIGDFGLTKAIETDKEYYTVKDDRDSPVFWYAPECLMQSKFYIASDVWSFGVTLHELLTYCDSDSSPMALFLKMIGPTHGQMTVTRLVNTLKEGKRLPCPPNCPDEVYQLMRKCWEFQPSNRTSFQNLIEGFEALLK
Protocol: as §3

[16] = target: T11, PDGFRa(T6741) (Homo sapiens, UniProt P16234, T674I); experiment: kinase competition binding assay; details: Table 1
T11 construct: catalytic domain constructs for large multi-domain kinases; T7 phage fusion (most assays) or DNA tag for qPCR (HEK-293-made kinases); made in house
T11 sequence (P16234 593-954 T674I limits assumed): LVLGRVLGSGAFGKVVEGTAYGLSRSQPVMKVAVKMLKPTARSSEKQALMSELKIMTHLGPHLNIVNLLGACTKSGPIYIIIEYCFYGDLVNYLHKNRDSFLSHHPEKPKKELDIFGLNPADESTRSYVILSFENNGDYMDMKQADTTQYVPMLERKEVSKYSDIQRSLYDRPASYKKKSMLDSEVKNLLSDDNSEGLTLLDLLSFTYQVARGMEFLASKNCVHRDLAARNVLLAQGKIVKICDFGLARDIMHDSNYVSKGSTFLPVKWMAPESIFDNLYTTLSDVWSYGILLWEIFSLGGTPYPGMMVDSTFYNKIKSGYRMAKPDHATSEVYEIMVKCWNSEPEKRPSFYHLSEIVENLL
Protocol: as §3

[17] = target: T12, PIP5K1A (Homo sapiens, UniProt Q99755); experiment: kinase competition binding assay; details: Table 1
T12 construct: T7 phage fusion (most assays) or DNA tag for qPCR (HEK-293-made kinases); made in house
Protocol: as §3

[18] = target: T13, MELK (Homo sapiens, UniProt Q14680); experiment: kinase competition binding assay; details: Table 1
T13 construct: full-length constructs were used for small, single domain kinases, and catalytic domain constructs for large multi-domain kinases; T7 phage fusion (most assays) or DNA tag for qPCR (HEK-293-made kinases); made in house
T13 sequence (Q14680 whole entry, the tested form may be a part): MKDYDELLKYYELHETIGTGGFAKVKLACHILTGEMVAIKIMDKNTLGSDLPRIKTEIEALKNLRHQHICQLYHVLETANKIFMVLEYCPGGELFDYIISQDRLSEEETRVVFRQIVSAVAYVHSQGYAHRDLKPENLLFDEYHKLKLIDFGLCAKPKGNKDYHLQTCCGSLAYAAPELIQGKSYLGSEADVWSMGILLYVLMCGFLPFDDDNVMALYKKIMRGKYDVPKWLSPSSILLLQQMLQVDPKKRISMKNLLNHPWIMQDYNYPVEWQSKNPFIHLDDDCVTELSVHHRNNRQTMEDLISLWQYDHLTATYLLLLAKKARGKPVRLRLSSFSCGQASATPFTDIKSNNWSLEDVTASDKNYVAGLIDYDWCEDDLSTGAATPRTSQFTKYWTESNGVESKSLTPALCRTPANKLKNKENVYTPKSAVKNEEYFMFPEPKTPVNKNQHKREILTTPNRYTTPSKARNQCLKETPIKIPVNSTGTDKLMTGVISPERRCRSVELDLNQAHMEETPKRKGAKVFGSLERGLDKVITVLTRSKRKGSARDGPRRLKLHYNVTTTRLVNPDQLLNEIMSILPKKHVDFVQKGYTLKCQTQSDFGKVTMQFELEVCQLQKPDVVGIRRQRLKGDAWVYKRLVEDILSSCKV
Protocol: as §3

[19] = target: T14, JAK3 (Homo sapiens, UniProt P52333); experiment: kinase competition binding assay; details: Table 1
T14 construct: full-length constructs were used for small, single domain kinases, and catalytic domain constructs for large multi-domain kinases; T7 phage fusion (most assays) or DNA tag for qPCR (HEK-293-made kinases); made in house
Protocol: as §3

[20] = target: T15, FLT3(D835V) (Homo sapiens, UniProt P36888, D835V); experiment: kinase competition binding assay; details: Table 1
T15 construct: full-length constructs were used for small, single domain kinases, and catalytic domain constructs for large multi-domain kinases; T7 phage fusion (most assays) or DNA tag for qPCR (HEK-293-made kinases); made in house
Protocol: as §3

[21] = target: T16, DRAK2 (Homo sapiens, UniProt O94768); experiment: kinase competition binding assay; details: Table 1
T16 construct: full-length constructs were used for small, single domain kinases, and catalytic domain constructs for large multi-domain kinases; T7 phage fusion (most assays) or DNA tag for qPCR (HEK-293-made kinases); made in house
T16 sequence (O94768 whole entry, the tested form may be a part): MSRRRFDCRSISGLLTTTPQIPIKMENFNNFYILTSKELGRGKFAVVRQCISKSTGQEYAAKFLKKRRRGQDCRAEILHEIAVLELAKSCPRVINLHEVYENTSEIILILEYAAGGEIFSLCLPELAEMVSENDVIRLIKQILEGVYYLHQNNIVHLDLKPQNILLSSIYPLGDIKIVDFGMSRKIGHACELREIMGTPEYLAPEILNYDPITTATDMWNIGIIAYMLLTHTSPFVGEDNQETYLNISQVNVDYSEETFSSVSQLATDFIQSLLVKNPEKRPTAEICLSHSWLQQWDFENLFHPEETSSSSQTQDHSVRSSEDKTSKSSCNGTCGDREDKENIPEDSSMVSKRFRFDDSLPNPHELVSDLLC
Protocol: as §3

[22] = target: T17, PIK3CA(1800L) (Homo sapiens, UniProt P42336, I800L); experiment: kinase competition binding assay; details: Table 1
T17 construct: T7 phage fusion (most assays) or DNA tag for qPCR (HEK-293-made kinases); made in house
Protocol: as §3

[23] = target: T18, BIKE (Homo sapiens, UniProt Q9NSY1); experiment: kinase competition binding assay; details: Table 1
T18 construct: full-length constructs were used for small, single domain kinases, and catalytic domain constructs for large multi-domain kinases; T7 phage fusion (most assays) or DNA tag for qPCR (HEK-293-made kinases); made in house
Protocol: as §3

[24] = target: T19, PDGFRa (Homo sapiens, UniProt P16234); experiment: kinase competition binding assay; details: Table 1
T19 construct: catalytic domain constructs for large multi-domain kinases; T7 phage fusion (most assays) or DNA tag for qPCR (HEK-293-made kinases); made in house
T19 sequence (P16234 593-954 limits assumed): as the sequence (P16234 593-954 T674I limits assumed) above, with I82T counted along it
Protocol: as §3

[25] = system: MOLM-14 Acute Myeloid Leukemia cell line; experiment: anticancer cell proliferation assay (WST-1); assay type: cell-based; details: Table 4; read-out: IC50 Acute Myeloid Leukemia cell lines MOLM-14
Protocol: as §1

[26] = system: THP-1 Acute Myeloid Leukemia cell line; experiment: anticancer cell proliferation assay (WST-1); assay type: cell-based; details: Table 4; read-out: IC50 Acute Myeloid Leukemia cell lines THP-1
Protocol: as §1

[27] = system: Normal Bone marrow; experiment: anticancer cell proliferation assay (WST-1); assay type: cell-based; details: Table 4
Protocol: as §1, with “Bioactivity of the above-described compounds has been verified by an anticancer cell proliferation assay using the WST-1 (4-[3-(4-iodophenyl)-2-(4-nitrophenyl)-2H-5-tetrazoliol-1, 3-benzene disulfonate) colorimetric assay by Roche Life Sciences®. Anticancer” for “Anticancer”

[28] = target: T20, FLT3(D835Y) (Homo sapiens, UniProt P36888, D835Y); assay type: binding; details: Table 4; read-out: IC50 Kinases FLT3-D835Y
T20 construct: full-length constructs were used for small, single domain kinases, and catalytic domain constructs for large multi-domain kinases; T7 phage fusion (most assays) or DNA tag for qPCR (HEK-293-made kinases); made in house
Protocol: as §2

[29] = system: 60 cancer cell line panel; details: US National Cancer Institute 60 cancer cell line panel; cited from earlier work

SIRT-5, sequence (Q9NXA8 37-310): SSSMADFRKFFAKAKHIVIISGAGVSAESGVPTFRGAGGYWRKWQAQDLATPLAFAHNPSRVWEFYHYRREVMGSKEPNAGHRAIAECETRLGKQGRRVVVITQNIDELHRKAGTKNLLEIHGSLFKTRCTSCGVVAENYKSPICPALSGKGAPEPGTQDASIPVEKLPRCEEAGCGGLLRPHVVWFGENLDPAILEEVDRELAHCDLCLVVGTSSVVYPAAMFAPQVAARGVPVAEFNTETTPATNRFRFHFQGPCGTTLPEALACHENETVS

## COc1cc(-c2cc(=O)c3c(O)c(C/C=C(\C)CCC=C(C)C)c(O)cc3o2)ccc1O [FBL-03A]
[1]
  IC50: 123000 nM

## COc1cc(-c2cc(=O)c3c(O)c(CC=C(C)C)c(O)cc3o2)ccc1O [FBL-03B]
[2]
  inhibition of tumor compared to the control: significant inhibition of tumor

## COc1cc(-c2cc(=O)c3c(O)cc(O)c(CC=C(C)C)c3o2)ccc1O [FBL-03G, Caflanone]
[3]; Table 3, 72 hours, WST-1, read-out: IC50 MV4-11 (Leukemia)
  IC50: 38.6 nM
[4]
  IC50: 950 nM
[5]
  IC50: 64.7 nM
[6]
  IC50: 38.2 nM
[7]
  IC50: 190 nM
[8]
  IC50: 136 nM
[9]
  IC50: 294 nM
[10]
  IC50: 164 nM
[11]
  IC50: 1700 nM
[12]
  IC50: 549 nM
[13]
  IC50: 1850 nM
[14]
  IC50: 1100 nM
[15]
  IC50: 644 nM
[16]
  IC50: 1670 nM
[17]
  IC50: 320 nM
[18]
  IC50: 88.9 nM
[19]
  IC50: 5.58 nM
[20]
  IC50: 12.5 nM
[21]
  IC50: 1400 nM
[22]
  IC50: 125 nM
[23]
  IC50: 81 nM
[24]
  IC50: 698 nM
[2]
  inhibition of tumor compared to the control: significant inhibition of tumor

## COc1ccc(-c2cc(=O)c3c(O)cc(O)cc3o2)cc1O [FBLGS-71]
[25]
  IC50: 3680 nM
[3]; Table 4, read-out: IC50 Acute Myeloid Leukemia cell lines MV4-11
  IC50: 3260 nM
[26]
  IC50: > 100000 nM
[27]
  IC50: > 100000 nM

## COc1ccc(-c2cc(=O)c3c(O)cc(O)cc3o2)cc1 [FBLGS-73]
[26]
  IC50: > 100000 nM
[27]
  IC50: > 100000 nM
[28]
  IC50: 49 nM

## COc1cc(-c2cc(=O)c3c(O)c(CC=C(C)C)c(O)cc3o2)ccc1O [cannflavin B]
[29]
  cytotoxicity against cancer cells: not cytotoxic

— patent publication US20210121437A1, “[…] AGENTS […] FLAVONOID DERIVATIVES TARGETING KINASES, SIRTUINS AND ONCOGENIC AGENTS FOR THE TREATMENT OF MULTIPLE MYELOMA, LYMPHOMA, AND […]” (priority 2015, published 2021)
